# Experimental data from patent publication US9012439B2, “Use of electrophilic compounds for inducing platelet production or maintaining platelet function” (University of Rochester, priority 2007, dated 2015).
# Tests used:
# [1] = test system: primary human megakaryocytes; test: Platelet production from human cord blood CD34+-derived megakaryocytes; assay type: cell-based; conditions: 10 μM, 24 h
# Experimental: Human CD34+ cord blood cells were obtained from the National Disease Research Interchange (NDRI, Philadelphia, Pa.). Cells were plated at 2.5×10^5 cells per well in a 12-well plate and cultured in serum-free medium as previously described (Zeuner et al., “Chemotherapy-induced Thrombocytopenia Derives from the Selective Death of Megakaryocyte Progenitors and Can Be Rescued by Stem Cell Factor,” Cancer Res 67:4767-4773 (2007), which is hereby incorporated by reference in its entirety) and supplemented with 100 ng/mL of rhTPO. After 14 days in culture, megakaryocytes were identified by staining with a CD61-FITC antibody and analyzed on a BD Biosciences FACSCalibur flow cytometer. Data were analyzed using FlowJo software (Treestar, Ashland, Oreg.). Cell images were captured using an inverted microscope (Olympus IX81). Platelets were isolated from megakaryocytes by centrifugation at 150 xg for 10 min. Supernatants underwent sequential centrifugation (500 xg for 10 min and 1000×g for 10 min). The remaining platelet pellet was fixed then permeabilized with a CD61 or CD41 antibody. 7-AAD (BD Pharmingen) was added for 10 min before analyzing the cells by flow cytometry. Platelets were identified using three well-described parameters (Patel et al., “The Biogenesis of Platelets from Megakaryocyte Proplatelets,” J Clin Invest 115:3348-3354 (2005); Breton-Gorius et al., “Expression of Platelet Proteins During the In Vitro and In Vivo Differentiation of Megakaryocytes and Morphological Aspects of Their Maturation,” Semin Hematol 23:43-67 (1986); Ogura et al., “Establishment of a Novel Human Megakaryoblastic Leukemia Cell Line, MEG-01, With Positive Philadelphia Chromosome,” Blood 66:1384-1392 (1985) and Franks et al., “A Fluorescence Microscopy Method for Quantifying Levels of Prostaglandin Endoperoxide H Synthase-1 and CD-41 in MEG-01 Cells,” Biol Proced Online 3:54-63 (2001), each of which is hereby incorporated by reference in its entirety), size (using normal human platelets as a control), presence of CD61 or CD41 and lack of DNA as determined by the absence of 7-AAD staining Ten thousand platelet events were collected and platelets were quantified by rate (platelet events/second) (Chung et al., “Platelet Activation in Acute, Decompensated Congestive Heart Failure,” Thromb Res 120:709-713 (2007), which is hereby incorporated by reference in its entirety.
# [2] = test system: Meg-01 cells; test: Active-caspase protein in Meg-01 cells; assay type: cell-based, human; conditions: Meg-01 cells in the presence of 15d-PGJ2
# [3] = test system: C57BL/6 mice; test: Irradiation-induced thrombocytopenia (5 Gy total body irradiation); assay type: in vivo, mouse (C57BL/6)
# Experimental: Seven or 8-week-old male C57BL/6 mice (Jackson Laboratories) were either exposed to 5 Gy cesium (Cs^137) total body irradiation (TBI) using a Model 8114 6000 Curie Shepherd Cs^137 irradiator (approximately 3200 Curie sealed Cs^137 source) with a dose rate of […] or left unexposed. Mice (n=4) received intravenous injections of vehicle (8% DMSO) or 15d-PGJ2 (1 mg/kg) or CDDO-Me (250 μg/kg) for 4 consecutive days from day 1 (days 1, 2, 3 and 4 post-irradiation). Blood was obtained from the aorta or the orbital sinus. Platelets were counted prior to radiation exposure and after radiation exposure on day 10, day 22, and day 31 in Example 7, or days 4, 10, 16, and 21 in Example 9 using the Heska® CBC-Diff™ Veterinary Analyzer (Fort Collins, Colo.). Data are expressed as average platelet counts from two separate experiments. For the unirradiated mice, platelets were counted on day 4, day 10, and day 15 in Example 7 or on the same days in Example 9.
# [4] = test system: primary mouse megakaryocytes; test: DNA content analysis of primary mouse megakaryocytes; assay type: cell-based
# Experimental: Bone marrow was isolated from the femora of male C57BL/6 mice (Jackson Laboratories, Bar Harbor, Me.) and plated at a concentration of 1×10^6 cells per well in 12-well plates in IMDM (Iscove's Modified Dulbecco's Media, Invitrogen) with 20% BIT 9500 (BSA, insulin, transferrin) and supplemented with 100 ng/mL of rhTPO. Cells were cultured for 5 days, following which 15d-PGJ2 (10 μM) was added to the culture medium for 24 h. On the sixth day, cells were examined by phase-contrast microscopy using an inverted microscope (Olympus IX81) and images were captured using SPOT RT software (New Hyde Park, N.Y.). Megakaryocytes were identified by preincubating with anti-mouse CD16/32 (FcγR-blocking antibody) and then incubating with PE-conjugated hamster anti-mouse CD41 antibody.
# Cells were fixed in 95% ethanol, treated with RNAse (Sigma) followed by 20 μg/mL propidium iodide (Sigma) to stain DNA, and analyzed by flow cytometry.
# [5] = target: T1, PPARγ (Homo sapiens, UniProt P37231); test: PPARγ gene reporter analysis (PPRE-luciferase) in Meg-01 cells; assay type: cell-based; conditions: 10 μM, 24 h after ligand treatment
# T1 construct: Meg-01 cells were plated at a density of […] cells per well in a E-well plate and transfected; endogenous in cells; host or cells: Meg-01 cells
# T1 sequence (P37231 1-505): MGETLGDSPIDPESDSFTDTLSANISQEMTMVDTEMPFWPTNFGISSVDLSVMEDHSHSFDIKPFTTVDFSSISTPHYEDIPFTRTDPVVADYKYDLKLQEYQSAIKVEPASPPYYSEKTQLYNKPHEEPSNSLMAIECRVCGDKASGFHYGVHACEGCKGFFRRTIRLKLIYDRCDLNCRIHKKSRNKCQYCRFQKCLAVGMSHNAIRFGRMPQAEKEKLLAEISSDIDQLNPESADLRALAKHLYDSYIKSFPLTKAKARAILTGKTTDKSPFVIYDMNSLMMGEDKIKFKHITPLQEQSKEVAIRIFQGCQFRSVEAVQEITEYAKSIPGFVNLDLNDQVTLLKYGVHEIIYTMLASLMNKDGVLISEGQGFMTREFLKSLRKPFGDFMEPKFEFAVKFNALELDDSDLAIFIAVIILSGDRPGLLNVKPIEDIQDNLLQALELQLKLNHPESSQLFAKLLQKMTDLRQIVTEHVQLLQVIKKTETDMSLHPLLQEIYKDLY
# Experimental: Meg-01 cells were plated at a density of […] cells per well in a […] and transfected, using lipofectamine LTX (Invitrogen), with a PPRE (Peroxisome Proliferator Response Element)-luciferase reporter plasmid containing three copies of the ACO-PPRE (a gift from Dr. B. Seed, Massachusetts General Hospital, Boston, Mass.). […] Transfection efficiency was determined by transfecting the cells with green fluorescent protein (GFP) plasmid and determining the percentage of cells that were GFP+ by flow cytometry. […] Luciferase activity was assessed 24 h after ligand treatment using the Promega Luciferase Assay System, and relative light units (RLU) were determined using a Lumicount Microplate Luminometer (Packard Instrument Co., Meriden, Conn.).
smiles,measurement,setting,value
"CCCCCC=CC=C1C(=O)C=C[C@@H]1CC=CCCCC(=O)O [15d-PGJ2, 15-deoxy-Δ^12,14 prostaglandin J2]",number of platelets generated from human megakaryocytes,[1]; CD61+ cells from cord blood CD34+ cells,doubled
same,proplatelet formation,"[1]; human megakaryocytes, microscopy",induced proplatelet formation
same,active-caspase protein,[2],upregulated active-caspase protein
same,weight versus vehicle-treated mice,[3]; 1 mg/kg IV for 4 consecutive days,no differences in weight
same,platelet numbers,"[3]; 5 Gy, 1 mg/kg IV days 1-4, by day 31","approximately 800,000 /μL"
same,platelet recovery compared to vehicle mice,"[3]; 5 Gy, 1 mg/kg IV days 1-4, day 22 and day 31",accelerated platelet recovery
same,primary mouse megakaryocyte ploidy,[4]; by 24 h,enhanced primary mouse megakaryocyte ploidy
same,DNA content,"[4]; primary mouse megakaryocytes, 10 μM, 24 h",increased DNA content
same,PPARγ activation (PPRE-luciferase activity),[5],activated PPARγ
